Laboratory results from patent US8481586B2, “Pyrrolo[2,3-a] carbazoles and use thereof as PIM kinase inhibitors” (Centre National de la Recherche Scientifique, priority 2008, dated 2013).

Columns and labels:
[1] = molecular target: PIM-1 (Homo sapiens (Human), UniProt P11309); assay: inhibition test on kinase PIM-1 (residual activity, IC50); type: biochemical; conditions: for remaining activity at 10 µM: product at 10 μmol/L, Table 2, N.I. = not inhibitory, read-out: Percentage of residual activity PIM-1
From the text: (§1) MKK1, ERK 1, ERK 2, JNK1, JNK2, JNK3, p38a MAPK, p38b MAPK, p38g MAPK, p38s MAPK, ERK8, RSK1, RSK2, PDK1, PKBa, PKBb, SGK1, S6K1, PKA, ROCK2, PRK2, PKCa, PKC zeta, PKD1, MSK1, MNK1, MNK2, MAPKAP-K2, MAPKAP-K3, PRAK, CAMKKa, CAMKKb, CAMK1, SmMLCK, PHK, CHK1, CHK2, GSK3b, CDK2/cyclin A, PLK1, PLK1 (Okadaic acid), Aurora B, Aurora C, AMPK, MARK3, BRSK2, MELK, CK1, CK2, NEK2a, NEK6, NEK7, IKKb, PIM-1, PIM-2, PIM-3, SRPK1, MST2, EF2K, HIPK2, HIPK3, PAK-4, PAK5, PAK6, Src, Lck, CSK.
(§2) The results in terms of residual activity of the kinases after being placed in contact with the compounds of Examples 2, 3 and 5, at a concentration of 10 μM (10 μmol/L), are shown in Table 1 below.
(§3) The higher the residual activity of the kinase tested, the lower the inhibitory activity of the test compounds on the tested kinase.
(§4) The compounds according to the invention were then tested on the kinases PIM-1, PIM-2 and PIM-3.
(§5) The results in terms of percentage of residual activity after placing the compounds according to the invention in contact with each of the kinases PIM-1, PIM-2 and PIM-3 are given in Table 2 below.
(§6) The higher the residual activity, the lower the inhibitory activity of the test compounds.
(§7) The mean inhibitory concentrations (IC50) of certain preferred compounds of the invention were determined in the following manner: the IC50 values were measured after performing the inhibition tests on the kinases PIM-1, PIM-2 and PIM-3 at ten different concentrations for each test compound, and the IC50 value was determined from the dose-inhibition curves obtained.

[2] = molecular target: PIM-2 (Homo sapiens (Human), UniProt Q9P1W9); assay: inhibition test on kinase PIM-2 (residual activity, IC50); type: biochemical; conditions: product at 10 μmol/L, Table 2, N.I. = not inhibitory; for remaining activity at 10 µM: read-out: Percentage of residual activity PIM-2
From the text: as §1, §2, §3, §4, §5, §6, §7

[3] = molecular target: PIM-3 (Homo sapiens (Human), UniProt Q86V86); assay: inhibition test on kinase PIM-3 (residual activity, IC50); type: biochemical; conditions: for remaining activity at 10 µM: product at 10 μmol/L, Table 2, N.I. = not inhibitory, read-out: Percentage of residual activity PIM-3; for IC50: ten concentrations, dose-inhibition curve
From the text: as §1, §2, §3, §4, §5, §6, §7

PIM-2, sequence (Q9P1W9 whole entry, species assumed): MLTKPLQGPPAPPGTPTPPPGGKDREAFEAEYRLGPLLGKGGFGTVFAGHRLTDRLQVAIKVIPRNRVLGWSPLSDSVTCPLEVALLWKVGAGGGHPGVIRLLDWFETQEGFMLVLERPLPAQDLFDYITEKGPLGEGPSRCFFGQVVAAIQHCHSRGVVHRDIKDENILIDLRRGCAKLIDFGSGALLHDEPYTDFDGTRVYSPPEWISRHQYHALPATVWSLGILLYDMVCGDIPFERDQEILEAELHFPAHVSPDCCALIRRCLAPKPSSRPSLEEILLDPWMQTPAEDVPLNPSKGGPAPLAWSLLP
PIM-1, sequence (P11309 whole entry, species assumed): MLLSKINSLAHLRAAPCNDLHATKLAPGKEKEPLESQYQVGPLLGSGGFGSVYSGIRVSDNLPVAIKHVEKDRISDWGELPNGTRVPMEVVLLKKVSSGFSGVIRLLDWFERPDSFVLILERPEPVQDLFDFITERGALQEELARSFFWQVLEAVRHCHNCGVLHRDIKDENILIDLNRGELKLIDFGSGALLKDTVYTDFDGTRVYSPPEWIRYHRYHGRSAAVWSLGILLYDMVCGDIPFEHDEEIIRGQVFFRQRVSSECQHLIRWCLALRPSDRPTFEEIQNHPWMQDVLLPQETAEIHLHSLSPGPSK

SMILES	remaining activity at 10 µM [1] [%]	remaining activity at 10 µM [2] [%]	remaining activity at 10 µM [3] [%]	melting point [°C]	IC50 [3] [nM]	Percentage of residual activity PIM-2 [2]	IC50 ([1]; ten concentrations, dose-inhibition curve) [nM]
O=Cc1c[nH]c2c1ccc1c3ccc(Br)cc3[nH]c12 [Example 43, 8-bromo-1,10-dihydropyrrolo[2,3-a]carbazole-3-carbaldehyde]	44	39	15	> 250			
CCc1cccc2c1[nH]c1c2ccc2c(C=O)c[nH]c21 [Example 51, 9-ethyl-1,10-dihydropyrrolo[2,3-a]carbazole-3-carbaldehyde]	1	14	10				
O=Cc1c[nH]c2c1ccc1c3cc(Br)ccc3[nH]c12 [Example 16, 7-bromo-1,10-dihydropyrrolo[2,3-a]carbazole-3-carbaldehyde]	6	57	6		40		570
Cc1ccc2c(c1)[nH]c1c2ccc2c(C=O)c[nH]c21 [Example 52, 8-methyl-1,10-dihydropyrrolo[2,3-a]carbazole-3-carbaldehyde]	15	39	8				
O=Cc1c[nH]c2c1ccc1c3cc(F)ccc3[nH]c12 [Example 46, 7-Fluoro-1,10-dihydropyrrolo[2,3-a]carbazole-3-carbaldehyde]	4	21	5				

Further lines, results first:

remaining activity at 10 µM [1] [%]	remaining activity at 10 µM [2] [%]	remaining activity at 10 µM [3] [%]	melting point [°C]	IC50 [3] [nM]	Percentage of residual activity PIM-2 [2]	IC50 ([1]; ten concentrations, dose-inhibition curve) [nM]	SMILES
24	53	16					CCN(CC)CC(O)c1c[nH]c2c1ccc1c3ccccc3[nH]c12 (stereo not shown) [Example 12, 1-(1,10-dihydropyrrolo[2,3-a]carbazol-3-yl)-2-diethylaminoethanol]
20	30	7		170			O=C(c1c[nH]c2c1ccc1c3ccccc3[nH]c12)C(F)(F)F [Example 6, 1-(1,10-dihydropyrrolo[2,3-a]carbazol-3-yl)-2,2,2-trifluoroethanone]
41	27	21					CCN(CC)C(=O)/C(=N\O)c1c[nH]c2c1ccc1c3ccccc3[nH]c12 [Example 13, 2-(1,10-dihydropyrrolo[2,3-a]carbazol-3-yl)-N,N-diethyl-2-hydroxyiminoethanamide]
61	62	64					O=S(=O)(c1ccccc1)n1ccc2ccc3c4ccccc4[nH]c3c21 [Example 1, 1-benzenesulfonyl-1,10-dihydropyrrolo[2,3-a]carbazole]
74	93	15					Brc1ccc2c(c1)[nH]c1c2ccc2cc[nH]c21 [Example 25, 8-bromo-1,10-dihydropyrrolo[2,3-a]carbazole]
90		43			N.I.		Brc1cccc2c1[nH]c1c2ccc2cc[nH]c21 [Example 27, 9-bromo-1,10-dihydropyrrolo[2,3-a]carbazole]
